For the data set, the system named is SH-SY5Y cells. The data set can be described thus: MTS cell viability assay, RA-differentiated SH-SY5Y cells. The format is cell-based, human. Conditions: three days. The protocol: one-way ANOVA with Dunnett’s multiple comparison test , # p<0.05 versus BDNF, according to one-way ANOVA with Sidak’s multiple comparison test).
Figure S 2. MT S assay for BDNF and its mimetic peptides. Cell viability assay of RA - differentiated SH -SY5Y cells treated for three days with 150 ng/ml BDNF of with different concentrations of m-, d- or s-bdnf peptides (M, D and S, respectively). ** p<0.01, *p<0.05, according to one-way ANOVA with Dunnett’s multiple comparison test).
(1 picture or pasted object on this page, not shown here) […]
incubated for 3 days in serum-free DMEM-F12 (morphometric ctrl). […]
SH-SY5Y were seeded at a density of 3.000 cell/well in 96 multiwell and differentiated as describe above. The viability of differentiated cells, in response to the various treatments, was assessed using an MTS assay (CellTiter 96 AQueous One Solution Cell Proliferation Assay kit; Promega) according to the manufacturer’s instructions. The absorbance of formazan at 490 nm was measured in a colorimetric assay with the EnSightTM multimode plate reader (Perkin Elmer). […]
TrkB phosphorylation was monitored after TrkB-eGFP construct immunoprecipitation, similarly to what previously reported for TrkA phosphorylation 3. […]

For the substance “HSDPARRGELSV-NH2 [m-bdnf, linear peptide fragment encompassing the first 12 amino acids of the mature NT N-terminal]”, the “cell viability (toxicity)” value (lower doses of m-bdnf) is given as “some toxicity”.

Turning to “HSDPARRGELSVC-C-VSLEGRRAPDSH (disulfide) [d-bdnf]”, the cell viability entry (5–10 μM d-bdnf) was “no reduced vitality of the culture”.

For the origin of these results see article PMC9732821, “Neurotrophic Activity and Its Modulation by Zinc Ion of a Dimeric Peptide Mimicking the Brain-Derived Neurotrophic Factor N-Terminal Region” (ACS Chemical Neuroscience, 2022).
